Results: patent US9241921B2, “Photosensitizer composition for treating skin disorders” (priority 2011, dated 2016)

System: acne vulgaris
Assay: Open-label prospective human study of topical ALA-PDT in acne vulgaris
Type: in vivo
Settings: after treatment, amelioration of acne (FIG. 5)
Method: Photodynamic therapy with topical ALA composition as described in Example 1 was tested for the treatment of acne vulgaris, in an open-label prospective human study. 22 subjects with acne on their back were treated at 4 different sites with one of the following at each site: ALA plus red light (ALA-PDT), ALA alone, light alone, and untreated control. Half of the subjects were treated once; half were treated 4 times. 20% topical ALA of Example 1 was applied with 3 hr occlusion, and 150 J/cm^2 broad band light ([…]) was applied to the treated site. Sebum excretion rate and auto-fluorescence from follicular bacteria were measured before, and at 2, 3, 10, and 20 weeks after treatment. […]
Subjects were randomly divided into single treatment group or multiple treatment group. At baseline, clinical evaluations, natural bacterial porphyrin fluorescence photography, and sebum excretion rate (SER) evaluation were performed. […] In both groups, subjects returned one week after treatments for clinical evaluations and at weeks 2, 3, 10 and 20 for clinical, fluorescence, and SER evaluations.
Each subject's acne was visually assessed using an inflammatory acne score modified from that previously described (Burke et al., 1994). […] The numbers of comedo, inflammatory comedo, papules, pustules, nodules and cysts in each test area were recorded. […]

For `O=C(OOC(=O)c1ccccc1)c1ccccc1` [Benzoyl Peroxide], the “time until therapeutic effect occurred” value was “eight to twelve”.
